# Test results as given in paper PMC11094663 (Journal of ethnopharmacology, 2022).
# Where two headings read alike, the source gives them in different places.
# Experiments:
# [1] = molecular target: T1, pregnane X receptor (PXR) (Homo sapiens, UniProt O75469); assay type: cell-based; details: for Fold induction in PXR activity: HepG2, 24 h, mean ± SD, NA = No activation
# T1 sequence (O75469 1-434): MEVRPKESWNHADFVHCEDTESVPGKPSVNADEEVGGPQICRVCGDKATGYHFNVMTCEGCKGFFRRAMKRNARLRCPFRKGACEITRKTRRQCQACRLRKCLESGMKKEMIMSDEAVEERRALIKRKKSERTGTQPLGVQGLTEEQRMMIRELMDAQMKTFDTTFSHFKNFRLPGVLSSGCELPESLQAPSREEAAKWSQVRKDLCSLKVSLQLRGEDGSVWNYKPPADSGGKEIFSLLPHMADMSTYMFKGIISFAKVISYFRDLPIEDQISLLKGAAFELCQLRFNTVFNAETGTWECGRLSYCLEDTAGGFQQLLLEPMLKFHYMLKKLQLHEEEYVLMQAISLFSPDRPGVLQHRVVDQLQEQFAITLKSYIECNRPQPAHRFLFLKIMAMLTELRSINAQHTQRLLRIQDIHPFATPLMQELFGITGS
# CYP3A4 = CYP3A4 (Homo sapiens, UniProt P08684); assay: Cytochrome P450; details: for CYP 3A4 Inhibition - IC50: 15 min incubation, 37 °C, mean ± SD of three experiments
# CYP3A4, sequence (P08684 whole entry): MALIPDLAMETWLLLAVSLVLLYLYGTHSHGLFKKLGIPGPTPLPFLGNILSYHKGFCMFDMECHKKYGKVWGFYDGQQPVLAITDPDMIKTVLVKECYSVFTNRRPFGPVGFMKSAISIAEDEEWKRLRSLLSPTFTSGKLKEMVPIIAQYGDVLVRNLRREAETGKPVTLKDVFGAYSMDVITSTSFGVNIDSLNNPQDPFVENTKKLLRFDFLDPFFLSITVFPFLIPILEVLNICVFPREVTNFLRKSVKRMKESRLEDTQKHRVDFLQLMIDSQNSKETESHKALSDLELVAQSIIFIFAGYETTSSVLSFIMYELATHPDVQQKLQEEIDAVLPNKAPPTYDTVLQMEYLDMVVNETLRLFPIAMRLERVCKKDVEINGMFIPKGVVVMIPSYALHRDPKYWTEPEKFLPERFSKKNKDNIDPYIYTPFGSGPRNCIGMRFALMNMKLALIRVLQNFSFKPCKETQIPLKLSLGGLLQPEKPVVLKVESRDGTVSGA
Molecule,Fold induction in PXR activity ([1]; compounds at 12.5 μg/mL),Fold induction in PXR activity ([1]; compounds at 25 μg/mL),Fold induction in PXR activity ([1]; compounds at 50 μg/mL),CYP 3A4 Inhibition - IC50 (CYP3A4),other results
"COC(=O)C1=C[C@H](O)C[C@H]2[C@]3(C)C[C@@H](c4ccoc4)OC(=O)[C@@H]3C[C@@H](O[C@@H]3O[C@H](CO)[C@@H](O)[C@H](O)[C@H]3O)[C@@]12C [(2R,5R,6R,8R,9S, 10S,12S)-15,16-epoxy-2-hydroxy-6-O-(β-D-glucopyranosyl)-cleroda-3, 13(16),14-trien-17,12-olid-18-oicacidmethyl ester]",0.93 ± 0.04 fold,1.01 ± 0.13 fold,1.39 ± 0.11 fold,29.00 ± 0.82 mg/L,
"COC(=O)C1=C[C@H](O)C[C@H]2[C@]3(C)C[C@@H](c4ccoc4)OC(=O)[C@H]3C[C@H](O[C@@H]3O[C@H](CO)[C@@H](O)[C@H](O)[C@H]3O)[C@@]12C [Borapetoside B, borapetoside B]",,,,,IC50 (CYP3A4): 181 µM
"COC(=O)C1=CCC[C@H]2[C@]3(C)C[C@@H](c4ccoc4)OC(=O)[C@@H]3C[C@@H](O[C@@H]3O[C@H](CO)[C@@H](O)[C@H](O)[C@H]3O)[C@@]12C [Borapetoside C, borapetoside C]",,,,,IC50 (CYP3A4): 69.9 µM
"COC(=O)C1=CCCC2C3(C)CC(c4ccoc4)OC(=O)C3=CC(OC3OC(CO)C(O)C(O)C3O)C12C (stereo not shown) [Borapetoside F, borapetoside F]",,,,13.00 ± 0.82 mg/L,
"C[C@@]12C[C@@H](c3ccoc3)OC(=O)[C@@H]1CC[C@]1(C)[C@H]2[C@@H]2C=C[C@@]1(O)C(=O)O2 [Columbin, columbin]",,2.89 ± 0.62 fold,3.58 ± 0.61 fold,,PXR activation (fold) ([1]; concentration not given): 3 fold
"C=C(CC[C@@H](C)[C@H]1CC[C@@]2(C)[C@@H]3CC[C@H]4[C@H](C)[C@@H](O)CC[C@@]45C[C@@]35CC[C@]12C)C(C)C [Cycloeucalenol, cycloeucalenol]",,,,,"fold induction at 24 h, 12.5 μg/mL ([1]; human): 1.42 ± 0.06; fold induction at 24 h, 25 μg/mL ([1]; human): 1.91 ± 0.23; fold induction at 24 h, 50 μg/mL ([1]; human): 2.42 ± 0.3"
COc1cc(/C=C/C(=O)NCCc2ccc(O)cc2)ccc1O [N-trans-feruloyl tyramine],,,,,"fold induction at 24 h, 12.5 μg/mL ([1]; human): 1.59 ± 0.07; fold induction at 24 h, 25 μg/mL ([1]; human): 2.16 ± 0.27; fold induction at 24 h, 50 μg/mL ([1]; human): 2.29 ± 0.41; IC50 (CYP3A4): 8.62 µM"
"COc1cc2c(cc1OC)-c1cc3ccc(OC)c(OC)c3c[n+]1CC2 [Palmatine, palmatine]",1.08 ± 0.00 fold,1.30 ± 0.00 fold,1.43 ± 0.00 fold,34.00 ± 0.00 mg/L,
"CO[C@H]1/C=C/O[C@@]2(C)Oc3c(C)c(O)c4c(O)c(c(/C=N/N5CCN(C)CC5)c(O)c4c3C2=O)NC(=O)/C(C)=C\C=C\[C@H](C)[C@H](O)[C@@H](C)[C@@H](O)[C@@H](C)[C@H](OC(C)=O)[C@@H]1C [Rifampicin, reference compound]",,,,,"fold induction at 24 h, 5 µM ([1]; human): 3.24 ± 0.15; fold induction at 24 h, 10 µM ([1]; human): 3.25 ± 0.08"
"COc1cc(/C=C/CO)cc(OC)c1O[C@@H]1O[C@H](CO)[C@@H](O)[C@H](O[C@@H]2OC[C@](O)(CO)[C@H]2O)[C@H]1O [Tinosinen, tinosinen]",1.48 ± 0.06 fold,1.67 ± 0.02 fold,1.42 ± 0.06 fold,>100 mg/L,
"CC(=O)O[C@@H]1[C@@H]2[C@H](CC[C@@]3(O)C(=O)O[C@H](c4ccoc4)C[C@@]23C)[C@H](O[C@@H]2O[C@H](CO)[C@@H](O)[C@H](O)[C@H]2O)C[C@@H]1O [Tinosineside A, tinosineside A]",1.42 ± 0.06 fold,1.50 ± 0.00 fold,1.53 ± 0.11 fold,45.00 ± 5.72 mg/L,
baenzigeride A,1.18 ± 0.09 fold,1.54 ± 0.16 fold,1.96 ± 0.16 fold,,
cordifoliside C,1.22 ± 0.06 fold,1.47 ± 0.03 fold,1.95 ± 0.04 fold,,
tinosposinoside,1.30 ± 0.08 fold,1.55 ± 0.08 fold,1.52 ± 0.15 fold,,
